Reference: US4929718A, “Synthetic noxiustoxin related peptides” (Universidad Nacional Autonoma De Mexico, priority 1987, dated 1990)
Ends that are not written are not given here.

Columns and labels:
BALB/c mice = BALB/c mice immunized for two months, immunodiffusion against NTX 1-39 coupled to MSA, FIG. 3
Source text: A group of ten mice were immunized with each peptide and a second group of mice were immunized with each peptide coupled to mouse serum albumin as a carrier molecule.

albino mice (strain CD1) = assay: "in vivo" challenge / lethality tests of synthetic peptides by injection of mice; settings: for lethality test outcome: mouse, in vivo
mouse brain synaptosomes = assay: release of tritiated GABA from mouse brain synaptosomes; format: cell-based; settings: for effect on GABA (neurotransmitter) release: mouse brain synaptosomes preloaded with 3H-GABA, FIG. 2
Source text: (§1) The mechanism of action of all synthetic peptides was verified by three independent essays: "in vivo" challenge by injection of albino mice (strain CD1) with different amounts of synthetic peptides; liberation of radioactive (tritiated) gamma-amino-butyric acid from mouse brain synaptosomes; and confirmation of the results with electrophysiological experiments, through voltage-clamp technique, in chick embryo dorsal root ganglion cells maintained in "in vitro" culture.
In the experiments involving release of neurotransmitters, mouse brain synaptosomes were preloaded with radioactive gamma-amino-butyric acid (2, 3, 3H-GABA) and were placed in Millipore filters ([…]) in perfusion chambers, each one containing 0.2 to 0.3 mg. of synaptosomal protein. The fractions from the perfusate (0.5 ml. each) were collected by means of a peristaltic pump at one minute intervals. After 6 minutes, a solution containing synthetic polypeptides was added to the experimental chambers and the radioactivity release was counted in an apparatus for measuring radioisotopes. […] The liberation of GABA per minute is expressed as a percentage of the total radioactivity present in the synaptosomes at the beginning of the experiment.

[1] = tested on: mice challenged with Noxiustoxin; settings: challenge with effective lethal dose of Noxiustoxin (150 g per mouse)
potassium channel = assay: voltage-clamp study of potassium channel blockade in dorsal root ganglion cells; format: cell-based; settings: concentrations of up to 100 micromolar, chick embryo dorsal root ganglion cells
Source text: as §1

[2] = dose 200 g (so in the source), intraventricularly

Substance: Tyrosine-Glycine-Serine-Serine-Alanine-Glycine-Alanine-Lysine-Cysteine-Methionine-Asparagine-Glycine-Lysine-Cysteine-Lysine-Cysteine-Tyrosine-Asparagine-Asparagine [NTX 21-39]
- immunogenicity (BALB/c mice): immunogenic

Substance: TIINVKCTS [NTX 1-9, Threonine-Isoleucine-Isoleucine-Asparagine-Valine-Lysine-Cysteine-Threonine-Serine]
- time to death (albino mice (strain CD1); dose 100 g (so in the source), intraventricularly): ≤ 20 h
- time to convulsions (albino mice (strain CD1); [2]): ≤ 12 min
- time to death (albino mice (strain CD1); [2]): < 0.333 h

Substance: Noxiustoxin (TIINVKCTSPKQCSKPCKELYGSSAGAKCMNGKCKCYNN; UniProt P08815 1-39, looked up) [Native NTX]
- effect on GABA (neurotransmitter) release (mouse brain synaptosomes): increases neurotransmitter release
- intoxication symptoms and outcome (albino mice (strain CD1); dose of 40 g per 20 grams of mouse body weight): generally produces death
- lethality test outcome (albino mice (strain CD1)): Toxic
- lethality test outcome (albino mice (strain CD1); ip): Toxic
- lethality test outcome (albino mice (strain CD1); sc): Toxic

Substance: Threonine-Isoleucine-Isoleucine-Asparagine-Valine-Lysine-Cysteine-Threonine-Serine-Proline-Lysine-Glutamine-Cysteine-Serine-Lysine-Proline-Cysteine-Lysine-Glutamic Acid-Leucine [NTX 1-20]
- effect on GABA (neurotransmitter) release (mouse brain synaptosomes): increases neurotransmitter release

Substance: Threonine-Isoleucine-Isoleucine-Asparagine-Valine-Lysine-Cysteine-Threonine-Serine-Proline-Lysine-Glutamine-Cysteine-Serine-Lysine-Proline-Cysteine-Lysine-Glutamic Acid-Leucine-Tyrosine-Glycine-Serine-Serine-Alanine-Glycine-Alanine-Lysine-Cysteine-Methionine-Asparagine-Glycine-Lysine-Cysteine-Lysine-Cysteine-Tyrosine-Asparagine-Asparagine [NTX 1-39]
- blockade of potassium permeability / potassium channels (mouse brain synaptosomes; excitable membranes such as brain synaptosomes): blocks potassium permeability
- immunogenicity (BALB/c mice): immunogenic
- survival of immunized population [1]: more than 75%

Substance: Methionine-Asparagine-Glycine-Lysine-Cysteine-Lysine-Cysteine-Tyrosine-Asparagine-Asparagine [NTX 30-39]
- change in the potassium currents (potassium channel): no change
- immunogenicity (BALB/c mice): immunogenic
